In patent publication US8916586B2, “Anti-angiogenic compound” (University College Dublin—National University of Ireland, …, priority 2011, dated 2014):
Entries after “also recorded” stand apart in the source; their conditions may differ.

Tests used:
[1] = system: hyaloid vasculature in zebrafish; test: Zebrafish developmental angiogenesis assay: number of primary branches of hyaloid vasculature on dissected lens; type: in vivo; settings: 10 μM, treated day 1-5, analysed 5 dpf
Text: We have used the zebrafish model as an in vivo screen for chemical libraries as the small size and transparency of the zebra fish enables high-content screens in multi-well plate formats (MacRae and Peterson, 2003; Pichler et al., 2003; Peterson et al., 2004; den Hertog, 2005; Zon and Peterson, 2005). […] To identify anti-angiogenic drugs we used a transgenic line of zebrafish that expresses a fluorescent reporter (EGFP) specifically in vasculature (Tg(fli1:efgp)). This line was obtained from the Zebrafish International Resource Center. Our assay involved screening the effect of drugs in the library on the development of blood vessels in zebrafish. Specifically, we looked at the integrity of vessels developing in the eye (hyaloid vessels attached to the lens) and in the trunk.
All experiments were carried out under ethical approval granted by the UCD animal research ethics committee. Tg(fli1:EGFP) zebrafish were maintained according to standard procedures on a 14 hr light/10 hr dark cycle at 28° C. Referring to the schematic of FIG. 1A, embryos were obtained by natural spawning and developmental stages established by time and morphological criteria. A chemical library containing numerous compounds was screened (FIG. 1A). In this specific example, the chemical library contained 5000 compounds of the DIVERSet™ collection from ChemBridge Corp., USA. At 24 hours post fertilisation (hpf), 5 embryos per well were placed in […] of Embryo Medium/1% DMSO and incubated with drug at 28° C. on a 14 h light/10 h dark cycle. Larvae were euthanised, and fixed in 4% PFA at 4° C. overnight before analysis. (FIG. 1A).
Right lenses were dissected from the larvae and transferred to depression slides for observation under epi-fluorescence in the Olympus SZX16 and to cover-slip bottom Petri-dishes for confocal microscopy in a Zeiss UV510 META LSM system (20× and 40× inverted objectives). To achieve appropriate orientation, lenses were embedded in 10% methyl-cellulose and manipulated with a tungsten needle (0.5 mm diameter). Patterning of the hyaloid vessels on the treated larval lenses was compared to DMSO controls and the archetypal pattern previously described (Alvarez et al., 2007; Alvarez et al., 2009). The number of primary vessels radiating from the back of the lens (3-4 main branches at 5 dpf in controls and previously described), was counted and the average number was graphed for each drug. From screens of ˜1600 small molecules, four “hits” that inhibited the number of primary hyaloids vessels were identified (FIG. 1B).
To validate the “hits” from the library screen, dose-dependence experiments were conducted by screening the drugs in the assay described in Example 2 above but at a range of increasing concentrations between 1-10 μM. Larvae were maintained under the drug treatments at 28° C. on 14 hr light/10 hr dark cycle until 5 days post fertilisation (dpf), when they were euthanised and fixed in 4% PFA at 4° C. overnight before analysis. The average number of primary hyaloids branches was graphed for each concentration of drug. […] One of the lead compounds identified by the screen of chemical library was 11B which has the chemical name 2-[2-2-quinolinyl)vinyl]phenol and its structure shown below: […]

[2] = system: mouse model of oxygen induced retinopathy (OIR); test: Mouse oxygen-induced retinopathy (OIR) model of ocular neovascularisation; type: in vivo; settings: 2 μg/μl, postnatal day 12-17, intravitreal
Experimental: To assess the ability of compound 11B to inhibit ocular neovascularisation in mammalian eyes, 11B was tested in the mouse model of oxygen induced retinopathy (OIR). […] 11B was injected intravitreally into a mouse model of oxygen-induced retinopathy (OIR). The OIR model was generated by placing postnatal day 7 (P7) mouse pups into hyperoxia (75% oxygen) for 5 days and then removing them to normoxia (21%) on postnatal day 12 (P12). The hyperoxic (high oxygen) environment causes retinal blood vessels to regress between P7 and P12. The normoxic environment on P12 is a relatively hypoxic (low oxygen) environment for the mice and causes the growth of new blood vessels (angiogenesis). For all samples, eyes were enucleated, fixed, flat mounted and then stained with an isolectin antibody to visualise the blood vessels. Blood vessels were quantified and those treated with lead compounds compared to controls.

[3] = system: dermal-derived normal human microvascular endothelial cells (HMVEC-d); test: In vitro HMVEC-d tube formation assay on Matrigel; type: cell-based; settings: 100 nM, 20 hr
Experimental: HMVEC-d were purchased from Clonetics, San Diego, Calif., USA. Cells were maintained in complete Endothelial Cell Medium (Clonetics® EGM®-2-MV BulletKit®) containing 500 ml of Endothelial Cell Basal Medium-2 and supplemented with hEGF, 0.5 ml; Hydrocortisone, 0.2 ml; GA-1000, 0.5 ml; FBS, 25 ml; VEGF, 0.5 ml; hFGF-B, 2.0 ml; R3-IGF-1, 0.5 ml; Ascorbic Acid, 0.5 ml in a 37° C. humidified atmosphere of 5% CO2/95% air. HMVEC-d were used for experiments between passages 4-8.
Matrigel (Becton Dickenson) basement membrane matrix was used to examine HMVEC-d tube formation. Matrigel (50 μl) was plated in 96 well culture plate wells after thawing on ice and allowed to polymerise at 37° C. 5% CO2 humidified atmosphere for 1 hr. HMVEC-d were removed from culture, trypsinised, and resuspended in full strength EGM growth medium. Cells were seeded at a density of 50×10^4 cells/cm^2 and incubated for 20 hr at 37° C. 5% CO2 humidified atmosphere. Endothelial cell tubule formation was assessed using phase contrast microscopy and photographed. A connecting branch between two discrete ECs was counted as one tube. The tube analysis was determined from 3 sequential fields (magnification×10) focusing on the surface of the matrigel.

Row | Compound | number of primary branches of hyaloid vasculature [1] | avascular area of the retina in treated eyes [2] [%] | inhibition of HMVEC-d tubule formation [3]
1 | COc1cc2c(cc1OC)C(c1ccc3c(c1)OCO3)N(C)CC2 (racemic) [11F-522, 1-(1,3-benzodioxol-5-yl)-6,7-dimethoxy-2-methyl-1,2,3,4-tetrahydroisoquinoline] | inhibited developmental angiogenesis; also recorded: significant (p<0.05) reduction; also recorded: significant inhibition; also recorded: significantly reduce |  | 
2 | COc1cc2c(cc1OC)[C@@H](c1ccc3c(c1)OCO3)N(C)CC2 (single isomer, unassigned) [11F-522R] | significant (p<0.05) reduction; also recorded: significantly reduce |  | 
3 | COc1cc2c(cc1OC)[C@H](c1ccc3c(c1)OCO3)N(C)CC2 (single isomer, unassigned) [11F-522S] | did not reduce |  | 
4 | Oc1ccc(/C=C\c2ccnc3ccccc23)cc1 [11B-799, 4-[2-(4-quinolinyl)vinyl]phenol] | inhibits developmental angiogenesis; also recorded: significant inhibition |  | 
5 | Avastin: clinically used anti-angiogenic monoclonal antibody, anti-VEGF [reference compound] |  | ~22 | significantly inhibited
